According to the CheMixHub ionic liquid set:
± gives the uncertainty stated by the source.

Assay: xn = mol fraction of the nth substance listed

CCCCCC[n+]1ccn(C)c1.O=S(=O)([N-]S(=O)(=O)C(F)(F)F)C(F)(F)F + CO
298.15 K, 100 kPa
Conditions	electrical conductivity [S/m]
x1 = 0.02978	1.7 ± 0.2
x1 = 0.04557	2.1 ± 0.2
x1 = 0.06683	2.3 ± 0.2
x1 = 0.09663	2.2 ± 0.2
x1 = 0.1426	1.9 ± 0.2

CCCCCCCC[P+](CC)(CC)CC.O=[N+]([O-])c1c[n-]cn1 + COCCOCCOCCOCCOC
viscosity [mPa·s], 100 kPa
Conditions	x1 = 0.599	x1 = 0.699	x1 = 0.9	x1 = 1
278.15 K	125 ± 4	210 ± 8	–	1270 ± 91
288.15 K	–	114 ± 3	–	569 ± 33
298.15 K	–	–	180 ± 7	–

CC[n+]1ccn(C)c1.COS(=O)(=O)[O-] + CS(C)=O
viscosity [mPa·s], 100 kPa
Conditions	298.15 K	303.15 K	308.15 K	313.15 K
x1 = 0.0164	4.16 ± 0.16	4.01 ± 0.15	3.89 ± 0.14	3.67 ± 0.13
x1 = 0.0398	7.35 ± 0.2	6.81 ± 0.19	6.27 ± 0.17	5.93 ± 0.16
x1 = 0.0602	9.97 ± 0.24	9.2 ± 0.22	8.55 ± 0.21	8.08 ± 0.2
x1 = 0.0941	14.18 ± 0.32	12.83 ± 0.29	12.06 ± 0.27	11.28 ± 0.25
x1 = 0.1236	17.62 ± 0.39	15.85 ± 0.35	14.5 ± 0.32	13.71 ± 0.3
x1 = 0.1519	20.91 ± 0.45	18.59 ± 0.4	16.92 ± 0.36	16.1 ± 0.35
x1 = 0.2143	27.4 ± 0.58	24.2 ± 0.51	21.94 ± 0.47	20.73 ± 0.44
x1 = 0.2927	34.95 ± 0.74	30.43 ± 0.64	27.28 ± 0.58	25.55 ± 0.54
x1 = 0.3737	41.96 ± 0.88	36.24 ± 0.76	32.09 ± 0.68	29.71 ± 0.62
x1 = 0.4429	47.4 ± 1	40.66 ± 0.86	35.66 ± 0.75	32.71 ± 0.69
x1 = 0.5298	53.6 ± 1.1	45.69 ± 0.96	39.54 ± 0.83	35.84 ± 0.75
x1 = 0.6072	58.8 ± 1.2	49.5 ± 1	42.55 ± 0.89	38.23 ± 0.8
x1 = 0.6927	64.3 ± 1.4	53.7 ± 1.1	45.77 ± 0.96	40.24 ± 0.85
x1 = 0.7486	67.7 ± 1.4	56.3 ± 1.2	47.7 ± 1	41.57 ± 0.87
x1 = 0.8263	72.7 ± 1.6	60 ± 1.3	50.3 ± 1	43.32 ± 0.91
x1 = 0.8944	77 ± 1.7	63.2 ± 1.3	52.7 ± 1.1	44.81 ± 0.94
x1 = 0.9396	80.1 ± 1.8	65.5 ± 1.4	54.3 ± 1.1	45.96 ± 0.97
x1 = 0.9755	82.5 ± 1.8	67.4 ± 1.4	55.7 ± 1.2	46.87 ± 0.99
x1 = 1	84.3 ± 1.9	68.7 ± 1.5	56.7 ± 1.2	47.6 ± 1

OCCCCCO + C[N+](C)(C)CCO.O=S(=O)([N-]S(=O)(=O)C(F)(F)F)C(F)(F)F
Conditions	viscosity [mPa·s]
333.15 K, 101 kPa, x1 = 1	20.3 ± 1.2

CCCCCC[n+]1ccn(C)c1.[Br-] + C[NH2+]CCC=C1c2ccccc2CCc2ccccc21.[Cl-] + O
viscosity [mPa·s], 100 kPa
Conditions	288.15 K	298.15 K	308.15 K	318.15 K
x2 = 0, x1 = 0.0001802	1.159 ± 0.044	0.926 ± 0.043	0.762 ± 0.043	0.645 ± 0.042
x2 = 0, x1 = 0.0007203	1.165 ± 0.044	0.934 ± 0.043	0.77 ± 0.043	0.643 ± 0.042
x2 = 0, x1 = 0.00126	1.171 ± 0.044	0.942 ± 0.043	0.776 ± 0.043	0.66 ± 0.043

CCCCCC[n+]1ccn(C)c1.O=S(=O)([N-]S(=O)(=O)C(F)(F)F)C(F)(F)F + ClC(Cl)Cl
electrical conductivity [S/m], 101 kPa
Conditions	x1 = 0.196	x1 = 0.335	x1 = 0.956	x1 = 0.97	x2 = 0.006
288.5 K	0.462	–	–	0.146	–
318.5 K	–	0.845	0.469	–	0.459

CCCCCC[n+]1ccn(C)c1.[Br-] + NC(N)=O + O
298.15 K, 100 kPa
Conditions	viscosity [mPa·s]
x2 = 0, x3 = 0.9008	6.89 ± 0.35
x2 = 0, x3 = 0.9487	2.88 ± 0.15
x2 = 0.008076, x3 = 0.8927	6.77 ± 0.34
x2 = 0.008492, x3 = 0.9402	2.97 ± 0.15
x2 = 0.01609, x3 = 0.8847	6.7 ± 0.34
x2 = 0.01695, x3 = 0.9318	2.98 ± 0.15
x2 = 0.02496, x3 = 0.9237	2.95 ± 0.15
x2 = 0.02678, x3 = 0.9219	2.96 ± 0.15
x2 = 0.03154, x3 = 0.8693	6.78 ± 0.34
x2 = 0.03322, x3 = 0.9155	2.98 ± 0.15
x2 = 0.03874, x3 = 0.8621	6.76 ± 0.34
x2 = 0.0408, x3 = 0.9079	3.02 ± 0.16

CC(C)C[C@H](N)C(=O)[O-].CCCC[P+](CCCC)(CCCC)CCCN + O
333.15 K, 101 kPa, x2 = 0
Conditions	electrical conductivity [S/m]	viscosity [mPa·s]
–	0.0413 ± 0.00083	130.5 ± 7.4

CCCCCCCC(=O)[O-].c1c[nH+]c[nH]1 + O
101.3 kPa
Conditions	viscosity [mPa·s]
293.15 K, x2 = 0.3042	53.53 ± 0.6
293.15 K, x2 = 0.4091	50.43 ± 0.41
293.15 K, x2 = 0.6017	39.83 ± 0.88
298.15 K, x2 = 0.5119	37.4 ± 0.86
298.15 K, x2 = 0.7995	18.69 ± 0.43
303.15 K, x2 = 0.3042	34.6 ± 0.81
303.15 K, x2 = 0.6643	24.26 ± 0.56
313.15 K, x2 = 0.1964	24.17 ± 0.57
313.15 K, x2 = 0.8154	10.93 ± 0.26
318.15 K, x2 = 0.0989	23.17 ± 0.54
318.15 K, x2 = 0.3042	19.22 ± 0.45
318.15 K, x2 = 0.6017	16.16 ± 0.38
318.15 K, x2 = 0.8154	9.92 ± 0.24
323.15 K, x2 = 0	25.33 ± 0.61
323.15 K, x2 = 0.0989	19.77 ± 0.46
323.15 K, x2 = 0.3042	16.85 ± 0.4
323.15 K, x2 = 0.8154	9.3 ± 0.23

CCCCCCCCCCCCCCCC[P+](CCCC)(CCCC)CCCC.[Br-] + O
300 K, 101 kPa
Conditions	electrical conductivity [S/m]
x2 = 0.201	0.00035 ± 5e-05
x2 = 0.302	0.00035 ± 5e-05
x2 = 0.402	0.00035 ± 5e-05
x2 = 0.502	0.00035 ± 5e-05

CCCCCCCCOS(=O)(=O)[O-].CC[n+]1ccn(C)c1 + O
101 kPa, frequency 0.0005 MHz
Conditions	electrical conductivity [S/m]
263.15 K, x2 = 0.8103	0.26 ± 0.016
288.15 K, x2 = 0.7822	0.678 ± 0.041
298.15 K, x2 = 0.8236	1.14 ± 0.069
303.15 K, x2 = 0.8236	1.32 ± 0.08
303.15 K, x2 = 0.8384	1.52 ± 0.092
313.15 K, x2 = 0.8103	1.65 ± 0.099
323.15 K, x2 = 0.8236	2.2 ± 0.13
333.15 K, x2 = 0.7822	2.4 ± 0.14
333.15 K, x2 = 0.8236	2.77 ± 0.17
343.15 K, x2 = 0.7822	2.9 ± 0.17

101 kPa
Conditions	viscosity [mPa·s]
298.15 K, x2 = 0.8236	63.5 ± 1.4
303.15 K, x2 = 0.8236	48.9 ± 1.1
303.15 K, x2 = 0.8384	46 ± 1
313.15 K, x2 = 0.8103	32.07 ± 0.71
333.15 K, x2 = 0.7822	15.7 ± 0.35
343.15 K, x2 = 0.7822	11.31 ± 0.25

CCCCCC[n+]1ccn(C)c1.O=S(=O)([N-]S(=O)(=O)C(F)(F)F)C(F)(F)F + O
Conditions	electrical conductivity [S/m]
295.15 K, 101 kPa, x2 = 0.233	0.29 ± 0.02

CCCCCC[n+]1ccn(C)c1.[Br-] + O
viscosity [mPa·s]
Conditions	288.15 K	298.15 K	308.15 K	318.15 K
100 kPa, x1 = 0.0001802	1.159 ± 0.044	0.926 ± 0.043	0.762 ± 0.043	0.645 ± 0.042
100 kPa, x1 = 0.0007203	1.165 ± 0.044	0.934 ± 0.043	0.77 ± 0.043	0.643 ± 0.042
100 kPa, x1 = 0.00126	1.171 ± 0.044	0.942 ± 0.043	0.776 ± 0.043	0.66 ± 0.043
100 kPa, x2 = 0.9008	–	6.89 ± 0.35	–	–
101 kPa, x1 = 1.982e-05	1.136 ± 0.024	–	0.722 ± 0.016	–
101 kPa, x1 = 3.243e-05	1.138 ± 0.024	0.891 ± 0.019	0.723 ± 0.016	–
101 kPa, x1 = 6.667e-05	1.142 ± 0.024	0.896 ± 0.019	0.726 ± 0.016	–
101 kPa, x1 = 0.001844	–	0.948 ± 0.013	–	–
101 kPa, x1 = 0.003654	–	1.005 ± 0.014	–	–
101 kPa, x1 = 0.005425	–	1.053 ± 0.014	–	–
101 kPa, x1 = 0.007153	–	1.101 ± 0.014	–	–

CCCC[n+]1ccn(C)c1.COS(=O)(=O)[O-] + O
viscosity [mPa·s], 101 kPa
Conditions	283.15 K	293.15 K	303.15 K	313.15 K	323.15 K	333.15 K	343.15 K
x2 = 0.0004	527 ± 18	273.8 ± 6.9	153.5 ± 2.9	93.1 ± 1.4	60.24 ± 0.76	41.07 ± 0.52	29.3 ± 0.37
x2 = 0.0999	432 ± 13	229.3 ± 5.2	132.8 ± 2.2	82.6 ± 1.1	54.53 ± 0.63	37.8 ± 0.45	27.72 ± 0.33
x2 = 0.194	356.2 ± 9.9	193.6 ± 3.9	114.5 ± 1.7	72.55 ± 0.86	48.65 ± 0.54	34.25 ± 0.38	25.14 ± 0.28
x2 = 0.3979	182.1 ± 3.4	104.3 ± 1.4	64.51 ± 0.65	42.47 ± 0.42	29.48 ± 0.29	21.44 ± 0.21	16.88 ± 0.17
x2 = 0.6025	63.13 ± 0.6	38.93 ± 0.35	25.65 ± 0.23	17.84 ± 0.16	12.97 ± 0.12	9.806 ± 0.087	8.289 ± 0.073
x2 = 0.8005	19.72 ± 0.17	13.01 ± 0.11	9.056 ± 0.075	6.609 ± 0.055	5.006 ± 0.042	3.929 ± 0.033	3.175 ± 0.027
x2 = 0.8993	8.179 ± 0.067	5.646 ± 0.046	4.113 ± 0.033	3.137 ± 0.026	2.483 ± 0.021	2.029 ± 0.017	1.707 ± 0.015
